Data published in ChEMBL document CHEMBL4346710, “Discovery of 7H-pyrrolo[2,3-d]pyrimidine derivatives as selective covalent irreversible inhibitors of interleukin-2-inducible T-cell kinase (Itk)” (Eur J Med Chem, 2019).

Tests used:
[1] = target: Interleukin-1 receptor-associated kinase 4 (Homo sapiens) (UniProt Q9NWZ3); assay: Inhibition of recombinant human His-tagged IRAK4 expressed in baculovirus expression system assessed as enzyme residual activity at 0.4 uM using fluorophore-labeled serine/threonine-7 peptide as substrate incubated for 60 mins by Z'-LYTE assay relative to control
MOLT-4 = assay: Growth inhibition of human MOLT4 cells incubated for 72 hrs by CellTiter-Glo luminescent cell viability assay; assay type: functional; conditions: MOLT-4, 72 h
[2] = target: Tyrosine-protein kinase BTK (Homo sapiens, UniProt Q06187); assay: Inhibition of recombinant full length human His-tagged BTK cytoplasmic domain expressed in baculovirus expression system assessed as enzyme residual activity at 0.4 uM using fluorophore-labeled tyrosine-1 peptide as substrate incubated for 60 mins by Z'-LYTE assay relative to control
[3] = target: Serine/threonine-protein kinase Sgk1 (Homo sapiens) (UniProt O00141); assay: Inhibition of recombinant human GST-tagged SGK1 catalytic domain (60 to 431 residues) expressed in baculovirus expression system assessed as enzyme residual activity at 0.4 uM using fluorophore-labeled serine/threonine-6 peptide as substrate incubated for 60 mins by Z'-LYTE assay relative to control
[4] = target: Protein kinase C theta type (Homo sapiens) (UniProt Q04759); assay: Inhibition of recombinant full length human His-tagged PRKCQ expressed in baculovirus expression system assessed as enzyme residual activity at 0.4 uM using fluorophore-labeled serine/threonine-7 peptide as substrate incubated for 60 mins by Z'-LYTE assay relative to control
[5] = target: Aurora kinase B (Homo sapiens) (UniProt Q96GD4); assay: Inhibition of recombinant full length human His-tagged Aurora B expressed in baculovirus expression system assessed as enzyme residual activity at 0.4 uM using fluorophore-labeled serine/threonine-1 peptide as substrate incubated for 60 mins by Z'-LYTE assay relative to control
Homo sapiens = species: Homo sapiens; assay: Selectivity ratio of IC50 for recombinant human full-length N-terminal His6-tagged BTK expressed in baculovirus infected Sf21 insect cells to IC50 for recombinant human N-terminal His6-tagged ITK (352 to 617 residues) expressed in baculovirus infected Sf21 insect cells
[6] = target: T1, Tyrosine-protein kinase ITK/TSK (Homo sapiens) (UniProt Q08881); assay: Inhibition of recombinant human N-terminal His6-tagged ITK (352 to 617 residues) expressed in baculovirus infected Sf21 insect cells assessed as ratio of Kinact to Ki using STK substrate by HTRF assay
T1 sequence (whole entry): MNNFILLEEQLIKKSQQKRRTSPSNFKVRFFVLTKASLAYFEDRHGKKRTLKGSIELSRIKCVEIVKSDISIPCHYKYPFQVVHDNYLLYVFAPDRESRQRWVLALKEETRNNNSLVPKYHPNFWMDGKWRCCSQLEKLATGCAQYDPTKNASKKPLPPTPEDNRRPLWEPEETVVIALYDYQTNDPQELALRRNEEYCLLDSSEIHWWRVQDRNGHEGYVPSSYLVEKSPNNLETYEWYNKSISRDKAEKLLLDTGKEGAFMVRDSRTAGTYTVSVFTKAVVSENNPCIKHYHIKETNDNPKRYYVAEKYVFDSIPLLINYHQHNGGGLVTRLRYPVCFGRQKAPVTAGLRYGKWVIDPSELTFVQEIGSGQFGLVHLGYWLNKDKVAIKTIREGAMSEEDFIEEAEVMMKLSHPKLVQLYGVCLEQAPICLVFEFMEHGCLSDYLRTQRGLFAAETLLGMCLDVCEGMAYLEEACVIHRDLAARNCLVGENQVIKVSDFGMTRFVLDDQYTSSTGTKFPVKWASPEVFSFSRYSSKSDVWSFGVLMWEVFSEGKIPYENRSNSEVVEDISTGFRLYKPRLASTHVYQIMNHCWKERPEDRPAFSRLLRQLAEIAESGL

[7] = target: Tyrosine-protein kinase Lck (Homo sapiens, UniProt P06239); assay: Inhibition of recombinant full length human C-terminal His-tagged LCK cytoplasmic domain expressed in baculovirus expression system using fluorophore-labeled tyrosine-2 peptide as substrate incubated for 60 mins by Z'-LYTE assay
[8] = target: Serine/threonine-protein kinase Chk2 (Homo sapiens) (UniProt O96017); assay: Inhibition of recombinant full length human His-tagged CHEK2 expressed in baculovirus expression system assessed as enzyme residual activity at 0.4 uM using fluorophore-labeled serine/threonine-07 peptide as substrate incubated for 60 mins by Z'-LYTE assay relative to control
HEK-293T = assay: Growth inhibition of HEK293T cells incubated for 72 hrs by CellTiter-Glo luminescent cell viability assay; assay type: functional; conditions: Homo sapiens
[9] = target: T2, Tyrosine-protein kinase JAK3 (Homo sapiens, UniProt P52333); assay: Inhibition of recombinant human N-terminal His6-tagged JAK3 (781 to end residues) expressed in baculovirus infected Sf21 cells using STK as substrate by HTRF assay
T2 sequence (P52333 whole entry): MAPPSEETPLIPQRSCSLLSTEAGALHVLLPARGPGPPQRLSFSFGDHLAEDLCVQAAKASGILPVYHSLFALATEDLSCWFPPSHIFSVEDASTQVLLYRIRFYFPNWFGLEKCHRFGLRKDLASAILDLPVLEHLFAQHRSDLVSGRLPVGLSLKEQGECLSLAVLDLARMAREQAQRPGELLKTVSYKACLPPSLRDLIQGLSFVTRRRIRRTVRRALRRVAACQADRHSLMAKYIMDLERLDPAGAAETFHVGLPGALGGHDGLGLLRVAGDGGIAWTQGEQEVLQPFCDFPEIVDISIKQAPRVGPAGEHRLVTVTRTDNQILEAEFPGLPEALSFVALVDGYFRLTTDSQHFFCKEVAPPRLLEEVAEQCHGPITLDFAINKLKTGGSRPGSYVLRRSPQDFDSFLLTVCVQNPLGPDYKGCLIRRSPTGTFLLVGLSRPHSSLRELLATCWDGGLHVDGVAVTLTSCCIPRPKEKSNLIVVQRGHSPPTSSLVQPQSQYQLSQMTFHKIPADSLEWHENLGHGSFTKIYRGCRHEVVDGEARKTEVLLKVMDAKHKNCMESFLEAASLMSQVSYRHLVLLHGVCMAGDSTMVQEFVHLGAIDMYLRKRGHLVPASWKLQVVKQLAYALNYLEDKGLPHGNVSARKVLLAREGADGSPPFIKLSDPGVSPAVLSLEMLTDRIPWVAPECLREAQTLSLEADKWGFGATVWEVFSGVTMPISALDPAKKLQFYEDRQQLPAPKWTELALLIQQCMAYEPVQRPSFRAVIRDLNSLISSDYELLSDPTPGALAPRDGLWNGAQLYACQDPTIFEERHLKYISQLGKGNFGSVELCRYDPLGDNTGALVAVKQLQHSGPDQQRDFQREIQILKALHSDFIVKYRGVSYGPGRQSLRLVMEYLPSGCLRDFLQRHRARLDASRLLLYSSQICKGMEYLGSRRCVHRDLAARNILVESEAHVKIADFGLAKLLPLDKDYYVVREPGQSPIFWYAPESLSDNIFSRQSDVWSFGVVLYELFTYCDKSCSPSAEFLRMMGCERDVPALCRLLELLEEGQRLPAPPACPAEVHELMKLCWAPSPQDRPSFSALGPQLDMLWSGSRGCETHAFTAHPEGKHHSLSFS

Sequence of Tyrosine-protein kinase BTK (Q06187 whole entry, the tested form may be a part): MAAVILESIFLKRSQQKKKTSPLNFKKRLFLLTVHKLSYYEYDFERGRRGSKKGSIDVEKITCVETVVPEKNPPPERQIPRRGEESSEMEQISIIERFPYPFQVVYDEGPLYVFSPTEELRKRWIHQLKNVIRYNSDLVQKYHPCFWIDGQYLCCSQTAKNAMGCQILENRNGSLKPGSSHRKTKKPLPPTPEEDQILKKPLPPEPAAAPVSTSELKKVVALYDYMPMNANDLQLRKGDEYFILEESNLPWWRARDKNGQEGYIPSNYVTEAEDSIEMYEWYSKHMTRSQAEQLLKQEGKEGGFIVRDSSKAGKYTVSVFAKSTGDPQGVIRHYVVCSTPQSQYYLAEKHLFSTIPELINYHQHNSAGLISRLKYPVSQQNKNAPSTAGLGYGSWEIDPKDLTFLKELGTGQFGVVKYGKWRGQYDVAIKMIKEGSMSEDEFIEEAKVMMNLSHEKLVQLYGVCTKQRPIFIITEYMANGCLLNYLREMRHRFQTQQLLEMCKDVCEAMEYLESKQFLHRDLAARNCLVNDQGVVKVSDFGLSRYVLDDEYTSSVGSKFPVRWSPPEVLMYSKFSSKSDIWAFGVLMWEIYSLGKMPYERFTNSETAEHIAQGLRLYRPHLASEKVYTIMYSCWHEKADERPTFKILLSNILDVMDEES
Sequence of Aurora kinase B (Homo sapiens) (Q96GD4 whole entry, the tested form may be a part): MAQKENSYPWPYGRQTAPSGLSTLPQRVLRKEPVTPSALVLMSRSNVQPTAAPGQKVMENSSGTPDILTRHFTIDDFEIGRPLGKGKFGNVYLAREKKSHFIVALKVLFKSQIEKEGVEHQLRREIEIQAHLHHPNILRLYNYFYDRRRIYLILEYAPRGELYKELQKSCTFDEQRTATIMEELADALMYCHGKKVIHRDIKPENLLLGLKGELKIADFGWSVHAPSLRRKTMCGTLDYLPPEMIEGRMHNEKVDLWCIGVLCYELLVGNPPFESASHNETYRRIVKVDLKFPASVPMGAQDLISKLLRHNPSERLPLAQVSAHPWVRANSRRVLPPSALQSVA
Sequence of Protein kinase C theta type (Homo sapiens) (Q04759 whole entry, looked up): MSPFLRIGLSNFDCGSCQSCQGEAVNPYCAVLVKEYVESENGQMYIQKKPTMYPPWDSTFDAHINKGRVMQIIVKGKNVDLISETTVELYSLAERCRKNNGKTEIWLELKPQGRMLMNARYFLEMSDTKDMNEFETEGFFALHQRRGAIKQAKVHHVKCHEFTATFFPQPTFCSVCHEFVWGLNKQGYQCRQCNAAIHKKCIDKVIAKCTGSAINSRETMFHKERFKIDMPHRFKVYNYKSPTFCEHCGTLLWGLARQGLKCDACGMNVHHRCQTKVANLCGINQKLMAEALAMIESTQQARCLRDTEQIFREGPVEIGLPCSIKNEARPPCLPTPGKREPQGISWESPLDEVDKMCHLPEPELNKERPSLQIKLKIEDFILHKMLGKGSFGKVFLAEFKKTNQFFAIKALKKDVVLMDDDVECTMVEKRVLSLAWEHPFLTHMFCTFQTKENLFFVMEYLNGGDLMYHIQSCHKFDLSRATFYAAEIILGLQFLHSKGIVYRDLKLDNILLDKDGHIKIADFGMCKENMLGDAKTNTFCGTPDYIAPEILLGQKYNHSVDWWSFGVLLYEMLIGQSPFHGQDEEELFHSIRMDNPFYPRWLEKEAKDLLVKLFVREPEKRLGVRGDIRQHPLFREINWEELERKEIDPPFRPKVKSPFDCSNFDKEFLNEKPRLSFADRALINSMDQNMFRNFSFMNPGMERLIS
Sequence of Tyrosine-protein kinase Lck (P06239 whole entry, the tested form may be a part): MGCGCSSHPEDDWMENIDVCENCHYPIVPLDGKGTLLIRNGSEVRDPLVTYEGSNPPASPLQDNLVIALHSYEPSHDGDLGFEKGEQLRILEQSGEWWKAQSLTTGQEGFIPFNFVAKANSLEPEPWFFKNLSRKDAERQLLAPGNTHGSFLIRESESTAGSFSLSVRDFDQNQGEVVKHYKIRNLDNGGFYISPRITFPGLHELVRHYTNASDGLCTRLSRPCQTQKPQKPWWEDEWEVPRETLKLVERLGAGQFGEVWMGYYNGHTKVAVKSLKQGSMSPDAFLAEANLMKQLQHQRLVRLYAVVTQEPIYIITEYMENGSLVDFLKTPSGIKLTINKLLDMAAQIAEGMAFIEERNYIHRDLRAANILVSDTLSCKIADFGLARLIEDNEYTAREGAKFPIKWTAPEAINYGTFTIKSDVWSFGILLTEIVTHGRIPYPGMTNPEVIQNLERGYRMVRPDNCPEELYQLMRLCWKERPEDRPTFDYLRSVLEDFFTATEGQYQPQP
Sequence of Serine/threonine-protein kinase Chk2 (Homo sapiens) (O96017 whole entry): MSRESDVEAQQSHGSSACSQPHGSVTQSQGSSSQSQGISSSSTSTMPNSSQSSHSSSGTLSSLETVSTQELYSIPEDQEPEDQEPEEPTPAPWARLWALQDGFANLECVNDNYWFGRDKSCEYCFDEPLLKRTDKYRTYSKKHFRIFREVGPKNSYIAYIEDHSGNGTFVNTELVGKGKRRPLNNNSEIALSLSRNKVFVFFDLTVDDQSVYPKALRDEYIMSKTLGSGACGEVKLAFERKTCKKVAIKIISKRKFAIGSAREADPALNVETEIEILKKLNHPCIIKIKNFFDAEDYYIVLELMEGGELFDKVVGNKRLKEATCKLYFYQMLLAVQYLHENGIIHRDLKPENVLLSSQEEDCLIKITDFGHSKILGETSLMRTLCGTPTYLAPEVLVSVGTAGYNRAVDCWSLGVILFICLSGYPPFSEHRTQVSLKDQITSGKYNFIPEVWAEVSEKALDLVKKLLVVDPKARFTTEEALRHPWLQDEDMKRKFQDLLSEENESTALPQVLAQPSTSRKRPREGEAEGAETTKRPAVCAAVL
Sequence of Interleukin-1 receptor-associated kinase 4 (Homo sapiens) (Q9NWZ3 whole entry): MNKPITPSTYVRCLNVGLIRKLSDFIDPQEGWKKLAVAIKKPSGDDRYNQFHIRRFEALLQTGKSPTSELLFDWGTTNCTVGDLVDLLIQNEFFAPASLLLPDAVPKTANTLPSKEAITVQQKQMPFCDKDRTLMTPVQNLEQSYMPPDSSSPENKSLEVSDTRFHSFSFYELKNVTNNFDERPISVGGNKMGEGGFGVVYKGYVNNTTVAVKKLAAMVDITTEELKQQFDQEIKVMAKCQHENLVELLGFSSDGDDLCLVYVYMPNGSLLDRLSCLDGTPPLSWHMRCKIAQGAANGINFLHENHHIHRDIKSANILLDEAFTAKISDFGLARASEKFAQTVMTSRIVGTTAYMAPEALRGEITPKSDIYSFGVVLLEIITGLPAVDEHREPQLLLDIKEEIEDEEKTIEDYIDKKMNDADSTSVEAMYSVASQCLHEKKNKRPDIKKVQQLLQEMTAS
Sequence of Serine/threonine-protein kinase Sgk1 (Homo sapiens) (O00141 whole entry, the tested form may be a part): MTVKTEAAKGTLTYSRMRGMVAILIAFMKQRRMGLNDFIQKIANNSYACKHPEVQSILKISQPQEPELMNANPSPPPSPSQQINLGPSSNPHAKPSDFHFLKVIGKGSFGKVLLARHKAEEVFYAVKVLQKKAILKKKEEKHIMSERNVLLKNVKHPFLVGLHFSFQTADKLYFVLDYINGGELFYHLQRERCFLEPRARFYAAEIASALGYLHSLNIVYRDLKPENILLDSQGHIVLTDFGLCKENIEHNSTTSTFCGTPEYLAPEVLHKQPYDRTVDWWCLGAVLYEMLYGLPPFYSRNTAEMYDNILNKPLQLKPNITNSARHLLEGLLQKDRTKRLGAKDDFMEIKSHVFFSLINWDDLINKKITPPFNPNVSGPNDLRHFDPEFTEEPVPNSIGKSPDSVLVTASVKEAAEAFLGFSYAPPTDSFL

`C=CC(=O)N1CCC(Oc2nc(Nc3ccc(N4CCOCC4)cc3)nc3[nH]cc(-c4cncc(NC)n4)c23)CC1` was tested, and the Activity [1] was 19.3%, the GI50 (MOLT-4) was 167 nM and the Activity [2] was 41.3%. The Activity [3] was 97%, the Activity [4] was 89% and the Activity [5] was 36%. The Ratio IC50 (Homo sapiens) was 250, the Ratio [6] was 101 ×10³ /M.s and the IC50 [7] was 74 nM. It also gave an Activity [8] of 78.7%, a GI50 (HEK-293T) of 544 nM and an IC50 [9] of 123 nM.
